Experimental findings from paper PMC9926234, “Iterative computational design and crystallographic screening identifies potent inhibitors targeting the Nsp3 macrodomain of SARS-CoV-2” (Proceedings of the National Academy of Sciences of the …, 2023) are described below.

Assay [1] concerns the target T1, SARS-CoV-2 NSP3 Mac1 (Severe acute respiratory syndrome coronavirus 2, UniProt P0DTD1). In kind it is binding. As to conditions: for Refined occupancy: ligand occupancy after refinement (phenix.refine).
Assay [2] deals with T1, SARS-CoV-2 NSP3 Mac1. In kind it is binding. As to conditions: for Spearman est (compound concentration vs apparent Tm): DSF dose responsiveness, 1 µM nsp3 mac1, adj p given. Also on record: contains a conserved macrodomain enzyme (Mac1). The gist of the method: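 ΔTma values are thermal shifts relative to a co-located DMSO-only control, read with 5 µM Fluorescent Yellow dye. Each compound was tested in triplicate over seven concentrations (two-fold steps, top 1,000 or 100 μM). Spearman correlation of concentration versus ΔTma tested whether the shift was dose-responsive.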

The mark [3] stands for this setting: PanDDA 1-BDC value of the event, crystal soak, compound concentration 100 mM, per dataset.
Where [4] appears, read: PanDDA event map, 1 minus background density correction, crystal soaking of Mac1.
The mark [5] stands for this setting: crystal soak, compound concentration 100 mM, per dataset.
[6] abbreviates: ligand modeled in the crystal structure, crystal soak, compound concentration 100 mM, per dataset.
[7] abbreviates: true hit = binding in crystallographic soaking or the HTRF-based binding assay.
[8] abbreviates: PanDDA 1-BDC (background density correction) of the event, crystal soak 100 mM, PanDDA run dmso_34.
Setting [9] is: crystal soak, compound concentration 100 mM, PanDDA run dmso_34, series docking_lead-like_1.
[10] abbreviates: ligand modeled in the crystal structure, crystal soak 100 mM, PanDDA run dmso_34.
Setting [11] is: overall hit flag: binding in crystallographic soaking or the HTRF-based binding assay.
[12] abbreviates: maximal thermal upshift vs DMSO control.

Several values for one entry are separate records, joined by “and”; a condition that tells them apart may be missing. Equal values may be shown once. Read-outs that look alike come from different tables or passages of the source.

Regarding `Cc1ccc([C@@H]2C[C@@H](C)CCN2C(=O)c2ncnc3[nH]ccc23)o1` [ZINC000611664196], the 1-BDC on SARS-CoV-2 NSP3 Mac1 [1] (setting [3]) and on SARS-CoV-2 NSP3 Mac1 [1] (setting [4]) was 0.05 each time. Moreover, on SARS-CoV-2 NSP3 Mac1 [1] (setting [5]), the “PanDDA hit?” value is given as “TRUE”. In addition, on SARS-CoV-2 NSP3 Mac1 [1] (setting [6]), the “Modeled?” value is reported as “TRUE”. Besides, at SARS-CoV-2 NSP3 Mac1 [1] (crystal soaking of Mac1), the Refined occupancy is recorded as 10. The “HIT*” value on SARS-CoV-2 NSP3 Mac1 [1] (setting [7]) is “Y”. The “Spearman est (compound concentration vs apparent Tm)” value at SARS-CoV-2 NSP3 Mac1 [2] was −0.75. Further, the “DSF max dTma” value on SARS-CoV-2 NSP3 Mac1 [2] (maximal thermal upshift) is listed as 0.14 ˚C.

Regarding `Cc1cc(S(=O)(=O)Nc2cnc3[nH]ccc3c2)n(C2CCCC2)n1` [FRESH00010608284], the 1-BDC on SARS-CoV-2 NSP3 Mac1 [1] (setting [4]) is reported as 0.15. The molecule further registered a Refined occupancy at SARS-CoV-2 NSP3 Mac1 [1] (crystal soaking of Mac1) of 30. Also, the “HIT*” value on SARS-CoV-2 NSP3 Mac1 [1] (setting [7]) was “Y”. In addition, the “Spearman est (compound concentration vs apparent Tm)” value at SARS-CoV-2 NSP3 Mac1 [2] is −0.51. Further, the “DSF max dTma” value on SARS-CoV-2 NSP3 Mac1 [2] (maximal thermal upshift) is 0.06 ˚C.

`CNS(=O)(=O)c1cc(C(=O)N2CCc3nc(N)ncc3C2)co1` [FRESH00014649046] yielded a 1-BDC at SARS-CoV-2 NSP3 Mac1 [1] (setting [3]) of 0.07. Besides, on SARS-CoV-2 NSP3 Mac1 [1] (setting [4]), the “1-BDC (PanDDA)” value came to 0.06. Also, the “PanDDA hit?” value at SARS-CoV-2 NSP3 Mac1 [1] (setting [5]) was “TRUE”. For the same molecule, the “Modeled?” value on SARS-CoV-2 NSP3 Mac1 [1] (ligand modeled from this dataset, compound concentration 100 mM) is recorded as “TRUE”. On SARS-CoV-2 NSP3 Mac1 [1] (crystal soaking of Mac1), this molecule yielded a Refined occupancy of 12. Moreover, at SARS-CoV-2 NSP3 Mac1 [1] (setting [7]), the “HIT*” value is on record as “Y”. Moreover, on SARS-CoV-2 NSP3 Mac1 [2], the “Spearman est (compound concentration vs apparent Tm)” value worked out at 0.3. Besides, on SARS-CoV-2 NSP3 Mac1 [2] (maximal thermal upshift), the “DSF max dTma” value is given as 0.29 ˚C.

With `Cc1nnc2n1CC(C(=O)O)N(C(=O)c1ccc(NC(=O)NC3CC3)cc1)C2` (centres unmarked) [8539_0037], the 1-BDC at SARS-CoV-2 NSP3 Mac1 [1] (setting [3]) and on SARS-CoV-2 NSP3 Mac1 [1] (setting [4]) was 0.4 in each case. Also, the “PanDDA hit?” value at SARS-CoV-2 NSP3 Mac1 [1] (setting [5]) is “TRUE”. The “Modeled?” value on SARS-CoV-2 NSP3 Mac1 [1] (setting [6]) is on record as “TRUE”. On SARS-CoV-2 NSP3 Mac1 [1] (crystal soaking of Mac1), the Refined occupancy is reported as 80. Also, the “HIT*” value at SARS-CoV-2 NSP3 Mac1 [1] (setting [7]) is given as “Y”. For the same molecule, on SARS-CoV-2 NSP3 Mac1 [2], the “Spearman est (compound concentration vs apparent Tm)” value is on record as 0.16. For the same molecule, the “DSF max dTma” value on SARS-CoV-2 NSP3 Mac1 [2] (maximal thermal upshift) is recorded as 2.36 ˚C.

`Nc1ncnc2c1ncn2Cc1cc(-c2ccco2)on1` [ZINC000681764827]: the 1-BDC on SARS-CoV-2 NSP3 Mac1 [1] (setting [8]) and on SARS-CoV-2 NSP3 Mac1 [1] (setting [4]) was 0.16 in each case. The “PanDDA hit?” value at SARS-CoV-2 NSP3 Mac1 [1] (setting [9]) is “TRUE”. The “Modeled?” value at SARS-CoV-2 NSP3 Mac1 [1] (setting [10]) is “TRUE”. The Refined occupancy at SARS-CoV-2 NSP3 Mac1 [1] (crystal soaking of Mac1) turned out to be 50. The “HIT*” value at SARS-CoV-2 NSP3 Mac1 [1] (setting [11]) is reported as “Y”. For the same molecule, the “Spearman est (compound concentration vs apparent Tm)” value at SARS-CoV-2 NSP3 Mac1 [2] was 0.38. The “DSF max dTma” value at SARS-CoV-2 NSP3 Mac1 [2] (setting [12]) was determined as 0.63 °C.

Take `c1csc(CC2CCN(c3ncnc4[nH]ccc34)C2)n1` (centres unmarked) [Z6891]: the “HIT*” value on SARS-CoV-2 NSP3 Mac1 [1] (setting [11]) is reported as “Y”. Further, the “DSF max dTma” value at SARS-CoV-2 NSP3 Mac1 [2] (setting [12]) was 0.15 °C.

For the molecule `Cc1ccc(-c2nc(Cn3cnc4c(N)nc(N)nc43)cs2)o1` [Z4718398580], the 1-BDC at SARS-CoV-2 NSP3 Mac1 [1] (setting [3]) was 0.28; at SARS-CoV-2 NSP3 Mac1 [1] (PanDDA event map, 1-BDC of the hit dataset, crystal soak, compound concentration 100 mM, listed as Z8580), 0.35 and 0.45; at SARS-CoV-2 NSP3 Mac1 [1] (setting [4]), 0.45. In addition, at SARS-CoV-2 NSP3 Mac1 [1] (setting [5]), the “PanDDA hit?” value is “TRUE”. For the same molecule, the “Modeled?” value on SARS-CoV-2 NSP3 Mac1 [1] (ligand modeled from this dataset, crystal soak, compound concentration 100 mM) is given as “TRUE”. In addition, the Refined occupancy on SARS-CoV-2 NSP3 Mac1 [1] (crystal soaking of Mac1) worked out at 60. Also, at SARS-CoV-2 NSP3 Mac1 [1] (setting [11]), the “HIT*” value was “Y”. The “Spearman est (compound concentration vs apparent Tm)” value on SARS-CoV-2 NSP3 Mac1 [2] is listed as 0.74. Further, at SARS-CoV-2 NSP3 Mac1 [2] (setting [12]), the “DSF max dTma” value amounted to 0.71 °C.

For `CN(CC(=O)O)C(=O)c1ccc2n[nH]c(=O)n2c1` [REAL250003774401], at SARS-CoV-2 NSP3 Mac1 [1] (setting [4]), the 1-BDC is listed as 0.16. The Refined occupancy on SARS-CoV-2 NSP3 Mac1 [1] (crystal soaking of Mac1) was determined as 32. For the same molecule, the “HIT*” value on SARS-CoV-2 NSP3 Mac1 [1] (setting [7]) is “Y”. At SARS-CoV-2 NSP3 Mac1 [2], the “Spearman est (compound concentration vs apparent Tm)” value is −0.3. Moreover, the “DSF max dTma” value at SARS-CoV-2 NSP3 Mac1 [2] (maximal thermal upshift) is listed as 0 ˚C.

As for `Cn1nc(O)c2c1CN(C(=O)c1cc(O)cc(=O)o1)CC2` [FRESH00002410346], the 1-BDC on SARS-CoV-2 NSP3 Mac1 [1] (setting [3]) and at SARS-CoV-2 NSP3 Mac1 [1] (setting [4]) was 0.07 in each case. Further, the “PanDDA hit?” value on SARS-CoV-2 NSP3 Mac1 [1] (setting [5]) is reported as “TRUE”. Moreover, the “Modeled?” value at SARS-CoV-2 NSP3 Mac1 [1] (setting [6]) is given as “TRUE”. On SARS-CoV-2 NSP3 Mac1 [1] (crystal soaking of Mac1), this molecule returned a Refined occupancy of 14. Also, at SARS-CoV-2 NSP3 Mac1 [1] (setting [7]), the “HIT*” value is “Y”. Besides, the “Spearman est (compound concentration vs apparent Tm)” value at SARS-CoV-2 NSP3 Mac1 [2] was −0.34. Further, on SARS-CoV-2 NSP3 Mac1 [2] (maximal thermal upshift), the “DSF max dTma” value is 0.09 ˚C.

Regarding `O=C(c1ncnc2[nH]ccc12)N1CC=CC12CCCCC2` [ZINC000827900828], the 1-BDC at SARS-CoV-2 NSP3 Mac1 [1] (setting [8]) and at SARS-CoV-2 NSP3 Mac1 [1] (setting [4]) was 0.18 throughout. Further, on SARS-CoV-2 NSP3 Mac1 [1] (setting [9]), the “PanDDA hit?” value is on record as “TRUE”. In addition, on SARS-CoV-2 NSP3 Mac1 [1] (setting [10]), the “Modeled?” value is reported as “TRUE”. In addition, the Refined occupancy on SARS-CoV-2 NSP3 Mac1 [1] (crystal soaking of Mac1) worked out at 36. Moreover, the “HIT*” value at SARS-CoV-2 NSP3 Mac1 [1] (setting [11]) was “Y”. Further, the “Spearman est (compound concentration vs apparent Tm)” value on SARS-CoV-2 NSP3 Mac1 [2] is −0.37. Further, on SARS-CoV-2 NSP3 Mac1 [2] (setting [12]), the “DSF max dTma” value was 0.93 °C.

`O=C(Cc1ccc(-n2cccn2)cc1)OCC1CCCNC1=O` (centres unmarked) [Z5505]: the “HIT*” value at SARS-CoV-2 NSP3 Mac1 [1] (setting [11]) is recorded as “Y”. The “DSF max dTma” value at SARS-CoV-2 NSP3 Mac1 [2] (setting [12]) worked out at 0.16 °C.
